Reference: patent US20140357512A1, “HISTONE DEACETYLASE (HDAC) BIOMARKERS IN MULTIPLE MYELOMA” (priority 2013, published 2014)

Test system: human myeloma cell line MM.1S
Experiment: SILAC acetylated-lysine peptide profiling, HDAC inhibitor vs DMSO (light/heavy ratio)
Format: cell-based
From the text: An embodiment of the invention comprises utilizing the SILAC method in order to quantitate changes in protein expression between two or more populations of cells. The SILAC method is a technique based on mass spectrometry that detects differences in protein abundance among samples using non-radioactive isotopic labeling. The SILAC method is known in the art, and described in detail in Ong et al., “Stable Isotope Labeling by Amino Acids in Cell Culture, SILAC, as a Simple and Accurate Approach to Expression Proteomics”, Molecular & Cellular Proteomics, vol. 1, pp. 376-386 (2002), which is incorporated herein by reference in its entirety.
Briefly, the SILAC method involves growing two populations of cells in cell culture. The first population of cells is grown in growth media containing normal amino acids (“normal media”). The second population of cells is grown in media lacking a standard essential amino acid (such as lysine), but is then supplemented with a non-radioactive, isotopically labeled form of that essential amino acid (such as lysine labeled with ^13C atoms, rather than normal ^12C atoms), which is called “heavy media”. When the two populations of cells are each growing in the medium, they incorporate the amino acids into all of their proteins. The growth of cells maintained in the heavy media is no different from that in normal media. All peptides containing the heavy amino acids are heavier than their normal counterparts. The cells from each of the two populations of cells are lysed. The lysates from each of the two cell populations are then combined. The combined cell lysates are then analyzed by mass spectrometry. Pairs of chemically identical peptides of different stable isotope composition can be differentiated in a mass spectrometer due to their difference in mass. The ratio of peak intensities in the mass spectrum for such peptide pairs reflects the abundance ratio for the two proteins.
This example describes SILAC studies that were performed to compare the effects of three different HDAC inhibitors (Compound A, Compound B, and tubastatin A) to a control on a human multiple myeloma cell line. The HDAC inhibitors were also compared amongst themselves to determine differences in their effects.
A human myeloma cell line MM.1S was grown using either ^12C (light) or ^13C (heavy) lysine containing culture medium. The “heavy” cells were treated with DMSO as the control, and the “light” cells were treated with a single HDAC inhibitor at 37° C. for 6 hours. The heavy and light cells were lysed, and the lysates were mixed in 1:1 ratio and digested with the protease trypsin. The acetylated lysine containing peptides (due to the action of the HDAC inhibitor) in the digested peptide pool were captured by a non-specific anti-acetylated lysine antibody cocktail (the antibodies identify both light and heavy acetylated peptides), and subjected to mass spectrometry analysis in order to identify thousands of individual peptides.
Thousands of peptides were identified in pairs (^12C and ^13C) due to their known mass differences. The amino acid sequence and quantitative ratio (Light/Heavy) of a given peptide in two differentially treated cell lysates were then determined and annotated with their possible protein (gene) sources.
As stated above, three HDAC inhibitors (Compound A, Compound B, and Tubastatin A) were used. Thus, the SILAC method was performed three times, with a different HDAC inhibitor compared to a control each time. Accordingly, there are three pairs of quantitative data in the table below, i.e., Compound A:DMSO, Compound B:DMSO, and Tubastatin A:DMSO. A cut-off of 1.30 fold of change (increase or decrease) was then used to determine “changed” or “+” in the table, and any peptides with a fold of change less than 1.3 fold were determined to be “unchanged” or “0” in the table. Those peptides that were not identified were marked as “NA” in the table. […]

## CN1CCc2c(c3ccccc3n2Cc2ccc(C(=O)NO)cc2)C1 [Tub A]
ATAD3A [491], log 2 scale, drug vs DMSO
  L/H ratio of acetylated peptide MYFDK(ac)YVLKPATEGK (SEQ ID NO: 23): 0.62
ATP5H [117], log 2 scale, drug vs DMSO
  L/H ratio of acetylated peptide IVEYEK(ac)EMEK (SEQ ID NO: 24): 0.63
ATP5J2 [54], log 2 scale, drug vs DMSO
  L/H ratio of acetylated peptide YYNK(ac)YINVK (SEQ ID NO: 12): 0.66
ATP synthase subunit O mitochondrial [54], ATP50, drug:DMSO
  light to heavy ratio (L/H ratio) of acetylated peptide QNK(ac)LEQVEK (SEQ ID NO: 271): 0.45 log 2
ATP synthase subunit alpha mitochondrial [261], gene ATP5A1, inhibitor:DMSO
  light to heavy ratio (L/H ratio) of acetylated peptide STVAQLVK(ac)R (SEQ ID NO: 552): 0.00 log 2
ATP synthase subunit alpha mitochondrial [539], gene ATP5A1, inhibitor:DMSO
  light to heavy ratio (L/H ratio) of acetylated peptide ISEQSDAK(ac)LK (SEQ ID NO: 600): 0.00 log 2
ATP synthase subunit b mitochondrial [233], ATP5F1, drug:DMSO
  light to heavy ratio (L/H ratio) of acetylated peptide HVVQSISTQQEK(ac)ETIAK (SEQ ID NO: 307): 0.62 log 2
ATP synthase subunit g mitochondrial [66], ATP5L, drug:DMSO
  light to heavy ratio (L/H ratio) of acetylated peptide IVNSAQTGSFK(ac)QLTVK (SEQ ID NO: 279): 0.77 log 2
ATP synthase-coupling factor 6 mitochondrial [41], ATP5J, drug:DMSO
  light to heavy ratio (L/H ratio) of acetylated peptide ELDPIQK(ac)LFVDK (SEQ ID NO: 365): 0.00 log 2
ATP synthase-coupling factor 6 mitochondrial [99], ATP5J, drug:DMSO
  light to heavy ratio (L/H ratio) of acetylated peptide FEDPK(ac)FEVIEKPQA (SEQ ID NO: 325): 0.00 log 2
AVEEK(ac)IEWLESHQDADIEDFK (SEQ ID NO: 172), 78 kDa glucose-regulated protein [601], HSPA5
  light to heavy ratio (L/H ratio) of acetylated peptide, log 2 scale: −0.54
AVIWPQYVK(ac)DR (SEQ ID NO: 156), cDNA FLJ59630 highly similar to Growth hormone-inducible transmembrane protein [124], GHITM
  light to heavy ratio (L/H ratio) of acetylated peptide, log 2 scale: 0.47
AVK(ac)HAEELER (SEQ ID NO: 225), Isoform 2 of Signal recognition particle 68 kDa protein [164], SRP68
  light to heavy ratio (L/H ratio) of acetylated peptide, log 2 scale: −1.00
AYGGSMCAK(ac)CVR (SEQ ID NO: 204), 60S ribosomal protein L34 [85], RPL34
  light to heavy ratio (L/H ratio) of acetylated peptide, log 2 scale: 0.40
AYHLQK(ac)STCGK (SEQ ID NO: 443), 60S ribosomal protein L37 [31], RPL37
  L/H ratio of acetylated peptide: 0.00 log 2
Acyl-CoA dehydrogenase family member 9 mitochondrial [41], gene ACAD9, inhibitor:DMSO
  light to heavy ratio (L/H ratio) of acetylated peptide AFAK(ac)ELFLGK (SEQ ID NO: 627): 0.00 log 2
Alpha-soluble NSF attachment protein [203], NAPA, drug:DMSO
  light to heavy ratio (L/H ratio) of acetylated peptide YSAK(ac)DYFFK (SEQ ID NO: 319): 0.44 log 2
Annexin A6 [9], ANXA6, drug:DMSO
  light to heavy ratio (L/H ratio) of acetylated peptide PAQGAK(ac)YR (SEQ ID NO: 305): 0.39 log 2
Annexin A6 [299], ANXA6, drug:DMSO
  light to heavy ratio (L/H ratio) of acetylated peptide TKYEK(ac)SLYSMIK (SEQ ID NO: 270): 0.42 log 2
Annexin A6 [314], ANXA6, drug:DMSO
  light to heavy ratio (L/H ratio) of acetylated peptide NDTSGEYK(ac)K (SEQ ID NO: 285): 0.70 log 2
Annexin A6 [478], ANXA6, drug:DMSO
  light to heavy ratio (L/H ratio) of acetylated peptide AINEAYK(ac)EDYHK (SEQ ID NO: 282): 0.53 log 2
Annexin A6 [607], ANXA6, drug:DMSO
  light to heavy ratio (L/H ratio) of acetylated peptide NKPLFFADK(ac)LYK (SEQ ID NO: 298): 0.51 log 2
Annexin A6 [620], gene ANXA6, inhibitor:DMSO
  light to heavy ratio (L/H ratio) of acetylated peptide GAGTDEK(ac)TLTR (SEQ ID NO: 621): 0.00 log 2
Annexin A6 [644], gene ANXA6, drug:DMSO
  light to heavy ratio (L/H ratio), log 2 scale, acetylated peptide EFIEK(ac)YDK (SEQ ID NO: 779): 0.00
Aspartate aminotransferase mitochondrial [73], gene GOT2, inhibitor:DMSO
  light to heavy ratio (L/H ratio) of acetylated peptide DDNGK(ac)PYVLPSVR (SEQ ID NO: 579): 0.00 log 2
Branched-chain-amino-acid aminotransferase [337], gene BCAT2, inhibitor:DMSO
  light to heavy ratio (L/H ratio) of acetylated peptide ELK(ac)EIQYGIR (SEQ ID NO: 540): 0.00 log 2
Bromodomain and PHD finger-containing protein 3 [105], gene BRPF3, drug:DMSO
  light to heavy ratio (L/H ratio), log 2 scale, acetylated peptide ESCSK(ac)HASGTSFHLPQPSFR (SEQ ID NO: 780): 0.00
CALR [62], log 2 scale, drug vs DMSO
  L/H ratio of acetylated peptide FYGDEEK(ac)DKGLQTSQDAR (SEQ ID NO: 25): −0.97
CD59 glycoprotein [63], CD59, drug:DMSO
  light to heavy ratio (L/H ratio) of acetylated peptide AGLQVYNK(ac)CWK (SEQ ID NO: 260): −0.45 log 2
CLTC [637], log 2 scale, drug vs DMSO
  L/H ratio of acetylated peptide ALEHFTDLYDIK(ac)R (SEQ ID NO: 26): −0.62
COX4I1 [87], log 2 scale, drug vs DMSO
  L/H ratio of acetylated peptide FK(ac)ESFAEMNR (SEQ ID NO: 1): 0.52
CREBBP [1216], log 2 scale, drug vs DMSO
  L/H ratio of acetylated peptide […](ac)QLCTIPR (SEQ ID NO: 27): 0.60
CREBBP [1595:1597], log 2 scale, drug vs DMSO
  L/H ratio of acetylated peptide TNK(ac)NK(ac)SSISR (SEQ ID NO: 13): 0.64
CREM [240], log 2 scale, drug vs DMSO
  L/H ratio of acetylated peptide ALK(ac)DLYCHK (SEQ ID NO: 28): 0.43
CSNK2B [139], log 2 scale, drug vs DMSO
  L/H ratio of acetylated peptide LYCPK(ac)CMDVYTPK (SEQ ID NO: 29): −0.39
Calreticulin [55], CALR, drug:DMSO
  light to heavy ratio (L/H ratio) of acetylated peptide FVLSSGK(ac)FYGDEEKDK (SEQ ID NO: 281): −0.51 log 2
Calreticulin [151], CALR, drug:DMSO
  light to heavy ratio (L/H ratio) of acetylated peptide VHVIFNYK(ac)GK (SEQ ID NO: 273): −0.58 log 2
Calreticulin [159], CALR, drug:DMSO
  light to heavy ratio (L/H ratio) of acetylated peptide NVLINK(ac)DIR (SEQ ID NO: 257): −0.88 log 2
Cation-dependent mannose-6-phosphate receptor [38], M6PR, drug:DMSO
  light to heavy ratio (L/H ratio) of acetylated peptide TCDLVGEK(ac)GK (SEQ ID NO: 289): −0.81 log 2
Citrate synthase mitochondrial [366], gene CS, inhibitor:DMSO
  light to heavy ratio (L/H ratio) of acetylated peptide EFALK(ac)HLPNDPMFK (SEQ ID NO: 583): 0.00 log 2
Cofilin-1 [121], gene CFL1, drug:DMSO
  light to heavy ratio (L/H ratio), log 2 scale, acetylated peptide MIYASSK(ac)DAIKK (SEQ ID NO: 763): 0.00
Coiled-coil-helix-coiled-coil-helix domain-containing protein 3 mitochondrial [173], CHCHD3, drug:DMSO
  light to heavy ratio (L/H ratio) of acetylated peptide AAEEVEAK(ac)FK (SEQ ID NO: 328): 0.00 log 2
Conserved hypothetical protein [484], gene KIAA0947, inhibitor:DMSO
  light to heavy ratio (L/H ratio) of acetylated peptide ASEIGEK(ac)YR (SEQ ID NO: 586): 0.00 log 2
Cytochrome b-c1 complex subunit 6 mitochondrial [85], gene UQCRH, inhibitor:DMSO
  light to heavy ratio (L/H ratio) of acetylated peptide DHCVAHK(ac)LFNNLK (SEQ ID NO: 608): 0.00 log 2
